Tests used:
[1] = system: CRC477 tumorgraft with FGFR1 amplification; experiment: Tumor growth in tumorgraft cohort CRC477; format: in vivo, NOD/SCID mice; conditions: 6 mice per cohort, combination p<0.01, two-way ANOVA
[2] = system: CRC343 tumorgraft with MAP2K1 57K>N substitution; experiment: Tumor growth in tumorgraft cohort CRC343; format: in vivo, NOD/SCID mice; conditions: CRC343, MAP2K1 57K>N; combination p<0.01, two-way ANOVA
[3] = system: CRC104 tumorgraft with EGFR 465G>E mutation; experiment: Tumor growth in tumorgraft cohort CRC104; format: in vivo, NOD/SCID mice; conditions: CRC104, EGFR 465G>E; n=6 for each arm; p<0.01, two-way ANOVA
[4] = system: cetuximab-resistant tumors with 492S>R alterations in EGFR; conditions: EGFR 492S>R, previous reports (32); cited from earlier work

CCN1CCN(c2ccc(Nc3cc(N(C)C(=O)Nc4c(Cl)c(OC)cc(OC)c4Cl)ncn3)cc2)CC1 [BGJ398, 3-(2,6-dichloro-3,5-dimethoxy-phenyl)-1-{6-[4-(4-ethyl-piperazin-1-yl)-phenylamino]-pyrimidin-4-yl}-1-methyl-urea]
Tumor growth [1]: resistant

Cn1cnc2c(F)c(Nc3ccc(Br)cc3Cl)c(C(=O)NOCCO)cc21 [AZD6244]
Tumor growth [2]: unproductive

panitumumab
Tumor growth [3]: poorly sensitive | Sensitivity of tumors to therapy [4]: sensitive
